Substitutions are numbered along the chain they refer to. pIC50: −log10 of the molar value. Like-named read-outs stand apart in the source and are kept apart here.
Key:
[1] = target: T1, human androgen receptor (hAR) (Homo sapiens, UniProt P10275); test: Competitive binding analysis on baculovirus/Sf9 generated hAR extracts with 3H-DHT tracer; conditions: hAR extract, 1 nM 3H-DHT, one hour at 4° C, mean of multiple tests; for pIC50: read-out: AR Binding IC50
T1 construct: made in house; host or cells: baculovirus/Sf9 insect cells (crude extract)
T1 sequence (P10275 1-920): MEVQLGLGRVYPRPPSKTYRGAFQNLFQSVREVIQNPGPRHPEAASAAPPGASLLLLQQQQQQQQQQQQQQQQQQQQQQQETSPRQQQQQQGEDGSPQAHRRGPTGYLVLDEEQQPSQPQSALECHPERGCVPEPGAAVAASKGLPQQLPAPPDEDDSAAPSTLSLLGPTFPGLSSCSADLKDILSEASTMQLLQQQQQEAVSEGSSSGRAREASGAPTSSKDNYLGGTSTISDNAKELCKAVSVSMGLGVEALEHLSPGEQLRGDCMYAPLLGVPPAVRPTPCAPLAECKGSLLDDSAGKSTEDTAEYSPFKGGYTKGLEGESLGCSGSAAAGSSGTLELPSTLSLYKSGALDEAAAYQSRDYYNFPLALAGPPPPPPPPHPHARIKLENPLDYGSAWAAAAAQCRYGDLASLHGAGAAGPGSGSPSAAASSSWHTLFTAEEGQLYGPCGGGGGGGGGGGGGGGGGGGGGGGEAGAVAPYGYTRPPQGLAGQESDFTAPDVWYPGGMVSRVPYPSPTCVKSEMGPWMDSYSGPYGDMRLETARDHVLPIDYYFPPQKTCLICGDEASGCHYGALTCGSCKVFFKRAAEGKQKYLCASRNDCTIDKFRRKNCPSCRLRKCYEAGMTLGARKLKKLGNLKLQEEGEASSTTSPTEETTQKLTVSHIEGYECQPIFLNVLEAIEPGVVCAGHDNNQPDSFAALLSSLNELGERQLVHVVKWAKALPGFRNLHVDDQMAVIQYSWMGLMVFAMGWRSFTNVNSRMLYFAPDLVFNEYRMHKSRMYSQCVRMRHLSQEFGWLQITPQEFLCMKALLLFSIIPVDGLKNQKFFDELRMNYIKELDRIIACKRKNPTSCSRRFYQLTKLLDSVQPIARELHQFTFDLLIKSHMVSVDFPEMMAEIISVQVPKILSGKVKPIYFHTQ
Procedure: The compounds of Formula I have affinity for the androgen receptor. […] The description below describes how the assay was carried out.
Competitive binding analysis was performed on baculovirus/Sf9 generated hAR extracts in the presence or absence of different concentrations of test agent and a fixed concentration of ^3H-dihydrotestosterone (^3H-DHT) as tracer. This binding assay method is a modification of a protocol previously described (Liao S., et. al. J. Steroid Biochem. 20:11-17 1984). Briefly, progressively decreasing concentrations of compounds are incubated in the presence of hAR extract (Chang et al. P.N.A.S. Vol. 89, pp. […], 1992), hydroxylapatite, and 1 nM^3H-DHT for one hour at 4° C. Subsequently, the binding reactions are washed three times to completely remove excess unbound ^3H-DHT. hAR bound ^3H-DHT levels are determined in the presence of compounds (=i.e competitive binding) and compared to levels bound when no competitor is present (=i.e. maximum binding). Compound binding affinity to the hAR is expressed as the concentration of compound at which one half of the maximum binding is inhibited. Table II below provides the results that were obtained for selected compounds (reported data is the mean of multiple tests as shown below)

androgen receptor = target: T2, androgen receptor (Homo sapiens, UniProt P10275); test: AR antagonist cell assay (MDA-MB453-MMTV clone 54-19 luciferase reporter, 100 pM DHT); type: cell-based; conditions: MDA-MB453-MMTV clone 54-19, inhibition of 100 pM DHT induction, 17 hr; mean of multiple tests; read-out: AR Cell IC50
T2 sequence (P10275 1-920 Q868H): T1 sequence (P10275 1-920) with Q868H
Procedure: The compounds ability to antagonize the effects of androgen on the androgen receptor were determined in a whole cell assay as described immediately below.
Experimental Procedure for AR Antagonist Cell Assay
This cell line is a stable transfected cell line with MDA-MB453 cell background (a human breast tumor cell line expressing androgen receptor). A MMTV minimal promoter containing ARE was first cloned in front of a firefly luciferase reporter gene. Then the cascade was cloned into transfection vector pUV120puro. […] Puromycin resistant stable cell line was selected. Cell Culture Media and Reagents:
Plating medium: DMEM (phenol red free), 10% charcoal treated HyClone serum, 1% L-glutamine
Assay medium: DMEM (phenol red free), 1% charcoal treated HyClone serum, 1% L-glutamine, and 1% penicillin/streptomycin
• 1. Cells are maintained in culture medium, splitting cells when they reach 80-90% confluence • 2. To test compounds, 10,000 cells/well are plated to opaque 96 cell culture plate in 100 ul/well plating medium, culture for overnight at 37° C. in cell culture incubator • 3. […] Add 10 ul/well freshly prepared DHT (final concentration at 100 pM) to each well, incubate at 37° C. for 17 hr (overnight) • 5.
The results are reported as the mean of multiple tests as described below (the numbers of tests are indicated in the footnote). N.D. denotes that the compound was not tested.

Row | Structure (SMILES) | pIC50 [1] | pIC50 (androgen receptor) | IC50 ([1]; AR Binding IC50 (nM))
1 | CC(C)CC(Oc1ccc(C#N)c(C(F)(F)F)c1)C(=O)NCc1ccc2c(c1)OCO2 (centres unmarked) [Example 24, 2-(4-Cyano-3-trifluoromethyl-phenoxy)-4-methyl-pentanoic acid (benzo[1,3]dioxol-5-yl-methyl)-amide] | 7.25 | 6.10 | –
2 | CC(C)CC(Oc1ccc(C#N)c(C(F)(F)F)c1)C(=O)NCc1ccc2c(c1)CCO2 (centres unmarked) [Example 25, 2-(4-Cyano-3-trifluoromethyl-phenoxy)-4-methyl-pentanoic acid (2,3-dihydro-benzofuran-5-yl-methyl)-amide] | 7.17 | 6.10 | –
3 | CC(C)CC(Oc1ccc(C#N)c(C(F)(F)F)c1)C(=O)NCc1ccc2nsnc2c1 (centres unmarked) [Example 26, 2-(4-Cyano-3-trifluoromethyl-phenoxy)-4-methyl-pentanoic acid (benzo[1,2,5]thiadiazol-5-yl-methyl)-amide] | 7.17 | < 6.00 | –
4 | CCCC(Oc1ccc(C#N)c(C(F)(F)F)c1)C(=O)NCc1ccc2c(c1)OCO2 (centres unmarked) [Example 29, 2-(4-Cyano-3-trifluoromethyl-phenoxy)-pentanoic acid (benzo[1,3]dioxol-5-yl-methyl)-amide] | 6.74 | < 6.00 | –
5 | CCCC(Oc1ccc(C#N)c(C(F)(F)F)c1)C(=O)NCc1ccc2c(c1)CCO2 (centres unmarked) [Example 30, 2-(4-Cyano-3-trifluoromethyl-phenoxy)-pentanoic acid (2,3-dihydro-benzofuran-5-yl-methyl)-amide] | 6.87 | 6.45 | –
6 | CCCC(Oc1ccc(C#N)c(C(F)(F)F)c1)C(=O)NCc1ccc2nsnc2c1 (centres unmarked) [Example 31, 2-(4-Cyano-3-trifluoromethyl-phenoxy)-pentanoic acid (benzo[1,2,5]thiadiazo-5-yl-methyl)-amide] | 7.08 | < 6.00 | –
7 | COc1cccc(CNC(=O)C(CC(C)C)Oc2ccc(C#N)c(C(F)(F)F)c2)c1 (centres unmarked) [Example 33, 2-(4-Cyano-3-trifluoromethyl-phenoxy)-4-methyl-pentanoic acid-3-methoxy-benzylamide] | 7.21 | 6.06 | –
8 | COc1ccc(CCNC(=O)C(CC(C)C)Oc2ccc(C#N)c(C(F)(F)F)c2)cc1 (centres unmarked) [Example 34, 2-(4-Cyano-3-trifluoromethyl-phenoxy)-4-methyl-pentanoic acid [2-(4-methoxyphenyl)-ethyl]amide] | 7.17 | < 6.00 | –
9 | COc1ccccc1CNC(=O)C(CC(C)C)Oc1ccc(C#N)c(C(F)(F)F)c1 (centres unmarked) [Example 35, 2-(4-Cyano-3-trifluoromethyl-phenoxy)-4-methyl-pentanoic acid-2-methoxy-benzylamide] | 7.11 | 6.11 | –
10 | CCOc1ccccc1CNC(=O)C(CC(C)C)Oc1ccc(C#N)c(C(F)(F)F)c1 (centres unmarked) [Example 36, 2-(4-Cyano-3-trifluoromethyl-phenoxy)-4-methyl-pentanoic acid-2-ethoxy-benzylamide] | 7.38 | < 6.00 | –
11 | Cc1cccc(CNC(=O)C(CC(C)C)Oc2ccc(C#N)c(C(F)(F)F)c2)c1 (centres unmarked) [Example 37, 2-(4-Cyano-3-trifluoromethyl-phenoxy)-4-methyl-pentanoic acid-3-methyl-benzylamide] | 7.39 | < 6.00 | –
12 | Cc1ccccc1CNC(=O)C(CC(C)C)Oc1ccc(C#N)c(C(F)(F)F)c1 (centres unmarked) [Example 38, 2-(4-Cyano-3-trifluoromethyl-phenoxy)-4-methyl-pentanoic acid-2-methyl-benzylamide] | 7.82 | < 6.00 | –
13 | COc1ccc(CNC(=O)C(CC(C)C)Oc2ccc(C#N)c(C(F)(F)F)c2)cc1 (centres unmarked) [Example 39, 2-(4-Cyano-3-trifluoromethyl-phenoxy)-4-methyl-pentanoic acid-4-methoxy-benzylamide] | 7.38 | < 6.00 | –
14 | CCCC(Oc1ccc(C#N)c(C(F)(F)F)c1)C(=O)NCc1ccccc1OC (centres unmarked) [Example 41, 2-(4-Cyano-3-trifluoromethyl-phenoxy)-pentanoic acid-2-methoxy-benzylamide] | 6.77 | 6.89 | –
15 | CCCC(Oc1ccc(C#N)c(C(F)(F)F)c1)C(=O)NCc1ccccc1OCC (centres unmarked) [Example 42, 2-(4-Cyano-3-trifluoromethyl-phenoxy)-pentanoic acid-2-ethoxy-benzylamide] | 6.86 | < 6.00 | –
16 | CCCC(Oc1ccc(C#N)c(C(F)(F)F)c1)C(=O)NCc1cccc(C)c1 (centres unmarked) [Example 43, 2-(4-Cyano-3-trifluoromethyl-phenoxy)-pentanoic acid-3-methyl-benzylamide] | 7.00 | 6.98 | –
17 | CCCC(Oc1ccc(C#N)c(C(F)(F)F)c1)C(=O)NCc1ccccc1C (centres unmarked) [Example 44, 2-(4-Cyano-3-trifluoromethyl-phenoxy)-pentanoic acid-2-methyl-benzylamide] | – | 7.43 | 42 nM
18 | CCCC(Oc1ccc(C#N)c(C(F)(F)F)c1)C(=O)NCc1ccc(C)cc1C (centres unmarked) [Example 45, 2-(4-Cyano-3-trifluoromethyl-phenoxy)-pentanoic acid-2,4-dimethyl-benzylamide] | 7.24 | < 6.00 | –
19 | CCCC(Oc1ccc(C#N)c(C(F)(F)F)c1)C(=O)NCc1ccc(OC)cc1 (centres unmarked) [Example 46, 2-(4-Cyano-3-trifluoromethyl-phenoxy)-pentanoic acid-4-methoxy-benzylamide] | 6.99 | 6.20 | –

— patent publication US7507860B2 (Pfizer Inc., priority 2004, dated 2009)
